The values that follow come from US8673890B2, “2,3-dihydro-1H-isoindol-1-imine derivatives useful as thrombin PAR-1 receptor antagonist” (Janssen Pharmaceutica NV, priority 2009, dated 2014).

Broadly, the IC50 is the concentration that inhibits the measured activity by half. For orientation: inhibition means the drop in the measured response relative to a control, in per cent. Higher therefore signals strong suppression. The pIC50 is the negative decadic logarithm of the IC50, by convention in mol/L.

pIC50: −log10 of the molar value. Where “and” joins values, the source holds several entries; their conditions need not be identical. Identical values can stand only once.

The target of assay [1] is T1, thrombin receptor (PAR-1) (Homo sapiens, UniProt P25116).
T1 construct: Human aortic smooth muscle cells (HSMC) were purchased from Cascade Biologics; host or cells: human aortic smooth muscle cells (HSMC)
T1 sequence (P25116 22-425): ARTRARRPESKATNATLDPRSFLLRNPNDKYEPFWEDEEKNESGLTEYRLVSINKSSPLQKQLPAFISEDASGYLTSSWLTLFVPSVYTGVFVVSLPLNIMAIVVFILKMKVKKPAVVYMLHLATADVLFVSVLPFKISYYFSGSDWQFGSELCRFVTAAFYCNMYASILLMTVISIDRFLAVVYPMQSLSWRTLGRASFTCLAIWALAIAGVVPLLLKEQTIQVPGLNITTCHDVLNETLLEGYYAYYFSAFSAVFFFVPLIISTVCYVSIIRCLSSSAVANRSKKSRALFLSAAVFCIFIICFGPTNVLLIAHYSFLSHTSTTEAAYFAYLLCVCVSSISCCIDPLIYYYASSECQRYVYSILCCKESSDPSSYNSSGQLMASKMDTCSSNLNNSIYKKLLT
The assay is described as follows: FLIPR-based calcium-flux assay with human smooth muscle cells (Har peptide agonist). The settings on record: HSMC; 30 nM Har (PAR1) peptide agonist; 80-min drug incubation; multiple values = individual measurements. It counts as cell-based. The method, then:
Human aortic smooth muscle cells (HSMC) were purchased from Cascade Biologics (Portland, Oreg.) and cultured in M-231 containing smooth muscle cell growth supplement and 1× Antibiotic-Antimycotic.
To determine agonist concentration for compound testing: On the day prior to the assay, 100 μL of cells (2×10^5/mL) were seeded in clear, flat-bottom black-wall, tissue culture treated polystyrene 96-well plates and incubated at 37° C., 5% CO2. On the day of the assay, 50 μL of complete dye loading solution (FLIPR Calcium 3 Kit, Molecular Devices) was added to each well containing 100 μL of culture media. The cells were incubated for 30-45 min at 37° C., in 5% CO2 before initiating the assay on the FLIPR. The agonist effect of PAR1 peptide (S-(p-F-Phe)-Har-L-Har-KY-NH2; Har=homoarginine; referred to herein as “Har” peptide) was tested and the EC50 was determined. The EC60-70 dose was used (30 nM) for compound testing.
Compound testing: On the day prior to the assay, 90 μL of cells (2.2×10^5/mL) were seeded in clear, flat-bottom black-wall, tissue culture treated polystyrene 96-well plates and incubated at 37° C., 5% CO2. On the day of the assay, the test compounds were prepared at 10× in 3% DMSO Hanks buffer and 10 μL was added to each well (final DMSO concentration of 0.3%). The cells were incubated 20 min at 37° C., 5% CO2. Culture medium containing testing compounds was dumped and the cells were washed four times with DPBS containing 0.1% of BSA and re-fed with 80 μL of growth medium. 70 μL of BD (fluorescent) dye was loaded to the cells and incubated 45 min at 37° C. incubator. The plates were equilibrated to room temperature for 15 min. 4× PAR1 peptide (30 nM final concentration) agonist plate and the cell plate were placed in FLIPR's assay chamber. 50 μL agonist was added to the cells and data was recorded for 5 min. Raw fluorescence data was exported for each well and tabulated versus time within an ASCII file. Data was then imported into Excel® and the peak response over basal level was determined. The percent inhibition for each test compound was calculated by the changes of fluorescent density as a % inhibition of the control Har peptide response to obtain an IC50.
Representative compounds of the present invention were tested according to the procedure described in Biological Example 1 above, with results in Table 8 below. In Table 8 below, where multiple values are listed for a particular compound, said numbers represent individual measurements (tests) for said compound.

Assay [2] has as its system platelets in platelet-rich plasma. As to the kind of experiment: Thrombin-induced platelet aggregation in platelet-rich plasma. It counts as cell-based, human. The settings on record: for inhibition at 10 µM: 10 μM compound; for pIC50: multiple values = individual measurements. The method, then:
(§1) The procedure for this assay is similar to that described in Biological Example 2, above. Briefly, platelet aggregation studies were performed according to the method of Bednar et al. (Bednar, B., Condra, C., Gould, R. J., and Connolly, T. M., Thromb. Res., 77:453-463 (1995)). Platelet-rich plasma (PRP) concentrates prepared from healthy volunteers who were aspirin free for at least 7 days by venipuncture using EDTA as anticoagulant was purchased from Biological Specialties, Inc. (Colmar, Pa.). PPP (platelet-poor-plasma) was obtained by centrifugation of PRP at Max (3,000 rpms) for 15 min at room temperature. PRP was diluted to yield platelet count of 300×10^3 platelets/μL with PPP. For thrombin induced platelet aggregation: 118 μL of 500 mM GPRP-NH2 was added to 12 mL of 300×10^3 platelets before using (to clean the fibrinogen in the plasma.) GPRP was added just before the experiment. 15 μL of test compound solutions were added to 120 μL of platelets 5 min prior the agonist additions. Platelet aggregation was initiated by the addition of agonist shown to achieve 60-70% aggregation. Antagonist potency was estimated as a % inhibition of the control Har peptide or thrombin response to obtain an IC50.
(§2) Where multiple values are listed for a particular compound, said numbers represent individual measurements (tests) for said compound.

Assay [3] shares this test system. The assay is described as follows: Har peptide-induced platelet aggregation in platelet-rich plasma. To be noted: multiple values = individual measurements. The assay is classed as cell-based, human. The method, then:
as §1, §2

Turning to `CC(C)(C)c1cc(C(=O)CN2Cc3cc4c(cc3C2=N)OCCCO4)cc(C(C)(C)C)c1O` [Compound 4, 1-(3,5-di-tert-butyl-4-hydroxyphenyl)-2-(7-imino-3,4-dihydro-[1,4]dioxepino[2,3-f]isoindol-8(2H,7H,9H)-yl)ethanone], the IC50 in assay [1] is 0.13 µM and 0.068 µM.
Still for that read-out and setting: for `CC(C)(C)c1cc(C(=O)CN2Cc3cc4c(cc3C2=N)OCCCCO4)cc(C(C)(C)C)c1O` [Compound 5] the value was 0.032 µM.
The same measure, in the same setting: for `CC1(C)COc2cc3c(cc2OC1)C(=N)N(CC(=O)c1cc(C(C)(C)C)c(O)c(C(C)(C)C)c1)C3` [Compound 9] the value was 0.16 µM.
Same read-out and setting: for `CC(C)(C)c1cc(C(=O)CN2Cc3cc4c(cc3C2=N)OCC(CCN2CCOCC2)CO4)cc(C(C)(C)C)c1O` (centres unmarked) [Compound 12] the value was 0.551 µM; for `CC(C)(C)c1cc(C(=O)CN2Cc3cc4c(cc3C2=N)OCC(CCN2CCCC2)CO4)cc(C(C)(C)C)c1O` (centres unmarked) [Compound 13], more than 3 µM.
As to `CC(C)(C)c1cc(C(=O)CN2Cc3cc4c(cc3C2=N)OCC(CC=O)CO4)cc(C(C)(C)C)c1O` (centres unmarked) [Compound 14, 2-(8-(2-(3,5-di-tert-butyl-4-hydroxyphenyl)-2-oxoethyl)-7-imino-2,3,4,7,8,9-hexahydro-[1,4]dioxepino[2,3-f]isoindol-3-yl)acetaldehyde], in assay [1], the IC50 turned out to be 0.78 µM.
With `CN1CCN(CCC2COc3cc4c(cc3OC2)C(=N)N(CC(=O)c2cc(C(C)(C)C)c(O)c(C(C)(C)C)c2)C4)CC1` (centres unmarked) [Compound 15], the IC50 in assay [1] is more than 3 µM.
Still for that read-out and setting: for `CN(C)CCC1COc2cc3c(cc2OC1)C(=N)N(CC(=O)c1cc(C(C)(C)C)c(O)c(C(C)(C)C)c1)C3` (centres unmarked) [Compound 16, 1-(3,5-di-tert-butyl-4-hydroxyphenyl)-2-(3-(2-(dimethylamino)ethyl)-7-imino-3,4-dihydro-[1,4]dioxepino[2,3-f]isoindol-8(2H,7H,9H)-yl)ethanone] the value was more than 1 µM; for `CNCCC1COc2cc3c(cc2OC1)C(=N)N(CC(=O)c1cc(C(C)(C)C)c(O)c(C(C)(C)C)c1)C3` (centres unmarked) [Compound 37], more than 3 µM.
Still for that read-out and setting: next, `COc1c(N2CCOCC2)cc(C(=O)CN2Cc3cc4c(cc3C2=N)OCCN(C(=O)OC(C)(C)C)CCO4)cc1C(C)(C)C` [Compound 41, tert-butyl 10-(2-(3-tert-butyl-4-methoxy-5-morpholinophenyl)-2-oxoethyl)-9-imino-2,3,5,6,10,11-hexahydro-[1,4,7]dioxazonino[2,3-f]isoindole-4(9H)-carboxylate]: 0.54 µM and > 1 µM and 1.2 µM.
Still for that read-out and setting: for `COc1c(N2CCOCC2)cc(C(=O)CN2Cc3cc4c(cc3C2=N)OCCNCCO4)cc1C(C)(C)C` [Compound 42, 1-(3-tert-butyl-4-methoxy-5-morpholinophenyl)-2-(9-imino-3,4,5,6-tetrahydro-[1,4,7]dioxazonino[2,3-f]isoindol-10(2H,9H,11H)-yl)ethanone] the value was 0.66 µM and > 1 µM and 1.3 µM; for `COc1c(N2CCOCC2)cc(C(=O)CN2Cc3cc4c(cc3C2=N)OCC(CCN2CCOCC2)CO4)cc1C(C)(C)C` (centres unmarked) [Compound 43], 0.45 µM and 0.68 µM; for `COc1c(N2CCOCC2)cc(C(=O)CN2Cc3cc4c(cc3C2=N)OCC(CC2NCCS2)CO4)cc1C(C)(C)C` (centres unmarked) [Compound 44], 0.1 µM and 0.12 µM.
Regarding `COc1c(N2CCOCC2)cc(C(=O)CN2Cc3cc4c(cc3C2=N)OCC(CCN2CCSC2)CO4)cc1C(C)(C)C` (centres unmarked) [Compound 45], the IC50 in assay [1] was 0.15 µM and 0.18 µM.
In assay [2] (Homo sapiens), `COc1c(N2CCOCC2)cc(C(=O)CN2Cc3cc4c(cc3C2=N)OCc2ccccc2CO4)cc1C(C)(C)C` [Compound 46] registered an inhibition at 10 µM of 34%. The negative-log IC50 (pIC50) in assay [2] (Homo sapiens, Platelet) was 5.33; in assay [3] (Homo sapiens, Platelet), 5.74; in assay [3] it was 5.98. In addition, the half-inhibitory concentration (IC50) in assay [1] was 0.094 µM and 0.1 µM.
Consider `CC(C)(C)c1cc(C(=O)CN2Cc3cc4c(cc3C2=N)OCc2ccccc2CO4)cc(C(C)(C)C)c1O` [Compound 47], for which the pIC50 was 5.60 in assay [2] (Homo sapiens, Platelet); 5.56 in assay [2]; 5.64 in assay [3] (Homo sapiens, Platelet); 5.65 in assay [3]. Also, in assay [1], the IC50 is 0.04 µM and 0.088 µM.
Turning to `CC(C)(C)c1cc(C(=O)CN2Cc3cc4c(cc3C2=N)OCc2cccnc2CO4)cc(C(C)(C)C)c1O` [Compound 48], in assay [1], the IC50 was 0.044 µM and 0.053 µM.
On the same count and under the same terms, next, `COc1c(Br)cc(C(=O)CN2Cc3cc4c(cc3C2=N)OCc2ncccc2CO4)cc1C(C)(C)C` [Compound 54]: 1.1 µM and > 3 µM and 0.75 µM.
Turning to `COC(=O)c1ccc2c(c1)COc1cc3c(cc1OC2)CN(CC(=O)c1cc(C(C)(C)C)c(O)c(C(C)(C)C)c1)C3=N` [Compound 55], the pIC50 in assay [2] (Homo sapiens, Platelet) was less than 5.00; in assay [2] it was less than 5.00; in assay [3], 5.61 and < 5.00 and 4.95.
`COc1c(N2CCN(C)CC2)cc(C(=O)CN2Cc3cc4c(cc3C2=N)OCc2cccnc2CO4)cc1C(C)(C)C` [Compound 71]: the pIC50 was 6.42 in assay [2] (Homo sapiens, Platelet); 6.54 in assay [3] (Homo sapiens, Platelet); 6.32 in assay [3]. The IC50 in assay [1] is 0.064 µM and 0.044 µM.
As for `CC(C)(C)c1cc(C(=O)CN2Cc3cc4c(cc3C2=N)OCc2cc(C(=O)O)ccc2CO4)cc(C(C)(C)C)c1O` [Compound 72], the pIC50 in assay [2] (Homo sapiens, Platelet) is less than 5.00; in assay [3] (Homo sapiens, Platelet) it was less than 5.00; in assay [3] it was less than 5.00. Further, the IC50 in assay [1] is 0.25 µM and 0.14 µM.
Take `CC(C)(C)c1cc(C(=O)CN2Cc3cc4c(cc3C2=N)OCc2nccnc2CO4)cc(C(C)(C)C)c1O` [Compound 77]: the pIC50 in assay [2] (Homo sapiens, Platelet) is 5.91; in assay [2], 5.72 and 5.81; in assay [3] (Homo sapiens, Platelet), 6.20; in assay [3], 6.31 and 6.08. Besides, the IC50 in assay [1] is 0.046 µM and 0.074 µM.
In the case of `COC(=O)c1ccc2c(c1)COc1cc3c(cc1OC2)C(=N)N(CC(=O)c1cc(C(C)(C)C)c(O)c(C(C)(C)C)c1)C3` [Compound 80], the pIC50 was less than 5.00 in assay [2] (Homo sapiens, Platelet); less than 5.00 in assay [2]; less than 5.00 in assay [3] (Homo sapiens, Platelet); 4.88 in assay [3]. The IC50 in assay [1] was 0.073 µM and 0.16 µM.
Take `CC(C)(C)c1cc(C(=O)CN2Cc3cc4c(cc3C2=N)OCc2ccc(C(=O)O)cc2CO4)cc(C(C)(C)C)c1O` [Compound 81]: the pIC50 in assay [2] (Homo sapiens, Platelet) was less than 5.00; in assay [2], less than 5.00; in assay [3] (Homo sapiens, Platelet) it was less than 5.00; in assay [3], less than 5.00. In addition, the IC50 in assay [1] was 0.054 µM and 0.082 µM and 0.014 µM.
Turning to `CC(C)(C)c1cc(C(=O)CN2Cc3cc4c(cc3C2=N)OCc2ncccc2CO4)ccc1O` [Compound 82], in assay [2] (Homo sapiens), the inhibition at 10 µM amounted to 21%. Besides, the pIC50 in assay [2] (Homo sapiens, Platelet) is 5.59; in assay [3] (Homo sapiens, Platelet), 6.19; in assay [3] it was 6.03. The IC50 in assay [1] is 0.11 µM and 0.17 µM.
Turning to `COC(=O)c1cc2c(cc1C(=O)OC)COc1cc3c(cc1OC2)CN(CC(=O)c1cc(C(C)(C)C)c(O)c(C(C)(C)C)c1)C3=N` [Compound 102], the IC50 in assay [1] came out at 0.35 µM.
Still for that read-out and setting: next, `COC(=O)c1cc2c(cc1C(=O)OC)COc1cc3c(cc1OC2)CN(CC(=O)c1cc(N2CCOCC2)c(OC)c(C(C)(C)C)c1)C3=N` [Compound 103]: 1.1 µM.
